Patent US6726940B2, “Use of at least one extract of the genus chrysanthemum for assisting skin and/or hair pigmentation” (Societe L'Oreal S.A., priority 1997, dated 2004)

How the values were obtained:
[1] = tested on: co-cultures of normal human keratinocytes/melanocytes; experiment: Synthesis of proteins: incorporation of tritiated leucine, indicator of cytotoxicity and of proliferation; type: cell-based; settings: NHK/NHM co-culture, three days treatment
Protocol: The modulator effect on melanogenesis of the extract obtained by Protocol 2 of Example 1 was tested on co-cultures of normal human keratinocytes/melanocytes according to the method described in the Patent FR 95 06491. The rate of synthesis of melanine is evaluated by the incorporation of thiouracil labelled with C^14. The synthesis of the proteins, determined by the incorporation of tritiated leucine, is taken as an indicator of cytotoxicity and of proliferation.
The normal human keratinocytes (NHK) and the normal human melanocytes (NHM) are cultured from preputial skin. The two types of cells are proliferated and stored frozen. Eight days before the test, each of the cell types is again put into culture in KGM medium from Gibco for keratinocytes (NHK) and into M2 medium from Dr Olsson for melanocytes (NHM) (Olsson, M. J. et al., Lancet (1992) 340, 981). […]
The total radioactivity incorporated in the proteins is estimated by the incorporation of tritiated leucine. […]
After one night, the cells are rinsed in phosphate buffer. The proteins are precipitated with the aid of 5% trichloroacetic acid (TCA) and washed in order to eliminate the free radioactivity. […]
The remainder of the extract, or 950 μl, is filtered through a DEAE Filtermat filter. […] The radioactivity is counted with the aid of the Wallac counter. The results are expressed as a percentage of the control according to the formula: [formula] […]

[2] = tested on: co-cultures of normal human keratinocytes/melanocytes; experiment: Modulation of melanogenesis: incorporation of 14C thiouracil in co-cultures of keratinocytes/melanocytes; type: cell-based; settings: NHK/NHM co-culture, three days treatment
Protocol: The modulator effect on melanogenesis of the extract obtained by Protocol 2 of Example 1 was tested on co-cultures of normal human keratinocytes/melanocytes according to the method described in the Patent FR 95 06491. The rate of synthesis of melanine is evaluated by the incorporation of thiouracil labelled with C^14. The synthesis of the proteins, determined by the incorporation of tritiated leucine, is taken as an indicator of cytotoxicity and of proliferation. The normal human keratinocytes (NHK) and the normal human melanocytes (NHM) are cultured from preputial skin. The two types of cells are proliferated and stored frozen. […] The proteins are precipitated with the aid of 5% trichloroacetic acid (TCA) and washed in order to eliminate the free radioactivity. […] The radioactivity is counted with the aid of the Wallac counter. The results are expressed as a percentage of the control according to the formula: [formula] in which: ^14CP is the average of the disintegrations per minute (dpm) of ^14C thiouracil in 3 similar wells treated with a product (P); ^3HP is the average of the corresponding ^3H leucine dpm; ^14CT is the average of the ^14C thiouracil dpm in 3 similar control wells (T); ^3HT is the average of the corresponding ^3H leucine dpm.

## O=c1cc(CO)occ1O [kojic acid]
[1]; 0.5 mM
  ^3HLeu. (%/control): +4 %/control
[2]; 0.5 mM
  ^14CThioU. (%/control): −47 %/control

## N[C@@H](Cc1ccc(O)cc1)C(=O)O [tyrosine]
[1]; 1 mM
  ^3HLeu. (%/control): −2 %/control
[2]; 1 mM
  ^14CThioU. (%/control): +118 %/control
